Results published in publication PMC11204923, “Marine Cytotoxin Santacruzamate A Derivatives as Potent HDAC1-3 Inhibitors and Their Synergistic Anti-Leukemia Effects with Venetoclax” (Marine Drugs, 2024).

Legend:
HL-60 cells = assay: Cell viability assay (resazurin), HL-60; assay type: cell-based; conditions: Homo sapiens, HL-60, 72 h; read-out: IC50 anti-proliferative activity HL-60
Description: The AML cell lines MV4-11, THP-1, KASUMI-1 and HL-60 were purchased from Procell Life Science & Technology Co., Ltd. (Wuhan, China). THP-1 and KASUMI-1 were cultured in RPMI-1640 complete medium containing 10% fetal bovine serum and 1% penicillin and streptomycin. MV4-11 was cultured in IMDM complete medium containing 10% fetal bovine serum and 1% penicillin and streptomycin. HL-60 was cultured in IMDM complete medium containing 20% fetal bovine serum and 1% penicillin and streptomycin. All cell lines were cultured in an incubator with humidity set at 95%, temperature at 37 °C and 5% CO2.
MV4-11, THP-1, KASUMI-1 and HL-60 cells were plated in 96-well transparent plates (10,000 to 15,000 cells/100 μL) and after incubation overnight, cells were treated with gradient-diluted inhibitors with several concentrations. After the cells were incubated with inhibitors for 72 h, 1 mg/mL of Resazurin (Sigma-Aldrich, Saint Louis, MO, USA) was added (working concentration was 0.1 mg/mL). After incubation at 37 °C for about 3 h, the fluorescence intensity of […] was measured at 560 nm/590 nm (excitation/emission) with a Spectra Max i3 Microplate Reader, and the cell viability was determined. The IC50 curve was drawn using GraphPad Prism 9.5 software.

HDAC8 = target: T1, HDAC8 (Homo sapiens, UniProt Q9BY41); assay: In vitro HDAC inhibition fluorescence assay, HDAC8; assay type: biochemical
T1 construct: purchased BPS Bioscience
T1 sequence (Q9BY41 1-377): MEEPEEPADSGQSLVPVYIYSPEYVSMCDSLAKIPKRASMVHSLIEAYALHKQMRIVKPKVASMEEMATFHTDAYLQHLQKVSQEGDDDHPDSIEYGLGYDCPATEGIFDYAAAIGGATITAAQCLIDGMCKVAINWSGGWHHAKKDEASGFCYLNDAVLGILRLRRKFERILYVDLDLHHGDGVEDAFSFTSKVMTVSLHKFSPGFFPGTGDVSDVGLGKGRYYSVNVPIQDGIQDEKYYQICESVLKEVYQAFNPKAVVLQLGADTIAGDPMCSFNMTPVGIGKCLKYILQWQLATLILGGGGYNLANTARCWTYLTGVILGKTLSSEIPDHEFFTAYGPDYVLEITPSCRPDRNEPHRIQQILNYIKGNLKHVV
Description: (§1) All of the HDAC enzymes were purchased from BPS Bioscience. In vitro HDAC inhibition assays were conducted as previously described. In brief, 20 μL of recombinant HDAC enzyme solution (HDAC1-9, 11) was mixed with various concentrations of the tested compound (20 μL). The mixture was incubated at 37 °C for 1 h, and then, 10 μL of fluorogenic substrate (Boc-Lys (acetyl)-AMC for HDAC1, 2, 3 and 6; Boc-Lys (trifluoroacetyl)AMC for HDAC4, 5, 7, 8, 9 and 11) was added to achieve a final concentration of 50 μM. After incubation at 37 °C for 2 h, the catalysis was stopped by the addition of 10 μL of developer containing 30 mg/mL trypsin and 6 μM trichostatin A (TSA). Then, 30 min later, the fluorescence intensity was measured using a microplate reader at excitation and emission wavelengths of 360 and 460 nm, respectively. The inhibition ratios were calculated from the fluorescence intensity readings of tested wells relative to those of control wells, and the IC50 curves and values were determined by GraphPad Prism 6.0, using the “log(inhibitor) vs. normalized response-variable slope” function.

HDAC6 = target: T2, HDAC6 (Homo sapiens, UniProt Q9UBN7); assay: In vitro HDAC inhibition fluorescence assay, HDAC6; assay type: biochemical
T2 construct: purchased BPS Bioscience
T2 sequence (Q9UBN7 1-1215): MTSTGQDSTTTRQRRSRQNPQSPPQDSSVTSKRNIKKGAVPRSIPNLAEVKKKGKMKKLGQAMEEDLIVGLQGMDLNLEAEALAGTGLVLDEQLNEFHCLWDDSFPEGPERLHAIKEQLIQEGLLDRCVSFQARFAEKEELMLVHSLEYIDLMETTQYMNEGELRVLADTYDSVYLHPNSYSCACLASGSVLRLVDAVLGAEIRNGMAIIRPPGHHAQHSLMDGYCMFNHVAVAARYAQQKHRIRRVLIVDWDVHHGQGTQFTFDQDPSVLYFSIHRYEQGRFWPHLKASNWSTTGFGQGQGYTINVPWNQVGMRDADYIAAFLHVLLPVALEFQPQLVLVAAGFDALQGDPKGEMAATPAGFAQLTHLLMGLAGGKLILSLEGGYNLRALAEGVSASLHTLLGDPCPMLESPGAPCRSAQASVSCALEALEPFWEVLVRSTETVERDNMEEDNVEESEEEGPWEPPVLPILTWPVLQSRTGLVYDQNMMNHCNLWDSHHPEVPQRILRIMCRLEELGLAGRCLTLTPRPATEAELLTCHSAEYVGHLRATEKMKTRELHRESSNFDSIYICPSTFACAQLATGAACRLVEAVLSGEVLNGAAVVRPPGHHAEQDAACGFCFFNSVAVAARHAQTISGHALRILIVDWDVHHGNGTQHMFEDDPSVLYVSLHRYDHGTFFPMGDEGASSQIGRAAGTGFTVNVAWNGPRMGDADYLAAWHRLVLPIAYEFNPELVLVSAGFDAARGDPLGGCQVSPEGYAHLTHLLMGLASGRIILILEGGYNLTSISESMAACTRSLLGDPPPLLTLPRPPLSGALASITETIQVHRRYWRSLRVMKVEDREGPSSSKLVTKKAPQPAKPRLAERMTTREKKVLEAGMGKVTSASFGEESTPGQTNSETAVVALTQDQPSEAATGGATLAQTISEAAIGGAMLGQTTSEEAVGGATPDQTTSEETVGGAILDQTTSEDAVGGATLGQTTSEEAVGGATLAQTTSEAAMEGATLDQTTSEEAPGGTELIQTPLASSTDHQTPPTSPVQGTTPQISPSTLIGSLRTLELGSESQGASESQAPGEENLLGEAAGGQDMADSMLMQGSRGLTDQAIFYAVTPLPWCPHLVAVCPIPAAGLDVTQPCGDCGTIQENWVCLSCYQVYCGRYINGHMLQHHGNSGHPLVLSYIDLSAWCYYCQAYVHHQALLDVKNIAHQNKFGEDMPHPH
Description: as §1

[1] = In vitro stability in artificial intestinal juice; assay type: in vitro ADME; conditions: 37 °C, within 24 h, degradation beginning after about 8 h
Description: Equal samples were collected, and 600 μL acetonitrile was added to quench enzyme reactions. The reaction mixture was swirled for 30 s and then centrifuged at 15,000 rpm at 4 °C for 15 min. The supernatant of each sample was analyzed directly by HPLC (1260 Infinity II, Agilent Technologies, Waldbronn, Germany).

## CCCNNC(=O)C=Cc1ccc(CNCCc2ccccc2)cc1 [Compound 25c, 3-(4-((Phenethylamino)methyl)phenyl)-N′-propylacrylohydrazide]
HL-60 cells
  IC50: 0.48 ± 0.177 µM
HDAC8
  IC50: 4.11 ± 0.63 µM
HDAC6
  IC50: > 10 µM
[1]
  degradation in artificial intestinal juice: 12.52%
